Patent publication US5364931A (Bayer Aktiengesellschaft, priority 1990, dated 1994)
pIC50: −log10 of the molar value.

How the values were obtained:
HIV-1 protease = biological target: T1, HIV-1 protease (Human immunodeficiency virus type 1 group M subtype B, UniProt P04585); assay: HIV-specific protease enzyme test (RP-HPLC), HIV-1; type: biochemical
T1 construct: purified HIV protease was incubated with synthetic peptide
Experimental: (§1) The results for the examples listed below were determined by the HIV test system described in the following literature reports [cf. Hansen, J., Billich, S., Schulze, T. Sukrow, S. and Molling, K. (1988), EMBO Journal, Vol. 7, No. 6, pages 1785-1791]: purified HIV protease was incubated with synthetic peptide which imitates a cleavage site in the Gag precursor protein and represents an in vivo cleavage site of the HIV protease. The resulting cleavage products of the synthetic peptide were analysed by means of reverse phase high performance liquid chromatography (RP-HPLC). The IC50 values given relate to the substance concentration which causes a 50% inhibition of protease activity under the abovementioned test conditions.

HIV-2 protease = biological target: T2, HIV-2 protease (Human immunodeficiency virus type 2 subtype A, UniProt P04584); assay: HIV-specific protease enzyme test (RP-HPLC), HIV-2; type: biochemical; settings: compounds of general formula (VIa)
T2 construct: purified HIV protease was incubated with synthetic peptide
Experimental: as §1

HIV protease = biological target: T3, HIV protease (Human immunodeficiency virus type 1 group M subtype B, UniProt P04585); assay: HIV-specific protease enzyme test (RP-HPLC), compounds of formula (I); type: biochemical; settings: purified HIV protease, synthetic Gag cleavage-site peptide, compounds of general formula (I)
T3 construct: purified HIV protease was incubated with synthetic peptide
Experimental: as §1

HIV-I protease = HIV-I protease (Human immunodeficiency virus type 1 group M subtype B, UniProt P04585); settings: read-out: IC50 (inactivation of HIV-I protease); cited from earlier work

T2 sequence (P04584 514-612 limits assumed): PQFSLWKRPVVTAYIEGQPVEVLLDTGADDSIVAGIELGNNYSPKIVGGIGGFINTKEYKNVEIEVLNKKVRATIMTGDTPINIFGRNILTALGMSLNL

Compound | pIC50 (HIV protease) | also measured
CC(C)[C@H](NC(=O)[C@H](Cc1ccccc1)NC(=O)CC(C)(C)C)C(=O)N[C@@H](Cc1ccccc1)C1CO1 (stereo partly drawn) [Example 46] |  | pIC50 (HIV-1 protease): 8.30; pIC50 (HIV-2 protease): 8.00
CCOP(=O)(OCC)C1CCCN1C[C@H](O)[C@H](CC1CCCCC1)NC(=O)OC(C)(C)C (mixture of isomers) [5 (polar), Diethyl 1-{(2S, 3S)-3-[(tert-butoxycarbonyl)-amino]-4-cyclohexyl-2-hydroxy-butyl}-(2R and 2S)-2 (pyrrolidinyl)-phosphonate] | 7.00 | 
O=[N+]([O-])c1ccc(OCC2CO2)cc1 (stereo not drawn) [EPNP, 1,2-epoxy-3-(4-nitrophenoxy)propane] |  | pIC50 (HIV-I protease): 3.35
CCOP(=O)(OCC)C1CCCN1C[C@H](O)[C@H](CC1CCCCC1)NC(=O)OC(C)(C)C (mixture of isomers) [5 (non-polar), Diethyl 1-{(2S, 3S)-3-[(tert-butoxycarbonyl)-amino]-4-cyclohexyl-2-hydroxy-butyl}-(2R and 2S)-2 (pyrrolidinyl)-phosphonate] | 6.00 | 
Diethyl 1-{(3S, 4S)-4-[(2S)-3-(tert-butylsulphonyl)-2-(1-naphthylmethyl)propanoyl]valinylamino]-5-cyclohexyl-3-hydroxy-pentanoyl}-(2R or 2S)-2-(pyrrolidinyl)phosphonate [26 (polar)] | 7.00 | 
